This is an account of results in patent US12077503B2, “Substituted cyclic amides and their use as herbicides” (FMC CORPORATION, priority 2015, dated 2024).

Where two headings read alike, the source gives them in different places.

Assay type in all cases: in vivo
Assay [1] has as its system barnyardgrass (Echinochloa crus-galli). Briefly: Test B flooded paddy test. The following applies: Echinochloa crus-galli, Flood, 250 g ai/ha, read-out: Barnyardgrass plant response rating. The essentials: (§1)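 Rating scale 0–100 (visual, vs untreated controls) after a 13–15 d greenhouse period; application to the flood layer, 3 cm above soil and maintained; plants at 2-leaf stage when treated.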

Assay [2] relates to ducksalad (Heteranthera limosa). Description: Test B flooded paddy test. The settings on record: Heteranthera limosa, Flood, 250 g ai/ha, read-out: Ducksalad plant response rating. The essentials:
as §1

The subject of assay [3] is sedge, umbrella (small-flower umbrella sedge, Cyperus difformis). Description: Test B flooded paddy test. The settings on record: Cyperus difformis, Flood, 250 g ai/ha, read-out: Sedge, Umbrella plant response rating. The essentials: as §1
A further assay deals with rice (Oryra sativa). Briefly: Test B flooded paddy test. The following applies: Oryza sativa, Flood, 250 g ai/ha, read-out: Rice plant response rating. The essentials:
as §1

For assay [4], the system named is ryegrass, Italian (Italian ryegrass, Lolium multiflorum). Description: Test A preemergence. The following applies: Lolium multiflorum, pre-emergence, 240 h, preemergence; for pest or weed control at 125 g/ha: 125 g ai/ha; for pest or weed control at 500 g/ha: 500 g ai/ha. In outline: (§2)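 Each rating is a visual injury score from 0 to 100 given about 10 d after treatment, judged against untreated controls kept alongside in the greenhouse. In loam soil–sand blend, seeds got a preemergence directed soil spray, while postemergence plants were 2 to 10 cm tall at spraying.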

A further assay relates to Kochia (Kochia scoparia). Briefly: Test A preemergence. The settings on record: Bassia scoparia, pre-emergence, 240 h, preemergence; for pest or weed control at 125 g/ha: 125 g ai/ha; for pest or weed control at 500 g/ha: 500 g ai/ha. The essentials: as §2
Assay [5] relates to ragweed (common ragweed, Ambrosia elatior). Description: Test A preemergence. The following applies: Ambrosia artemisiifolia, pre-emergence, 240 h, preemergence; for pest or weed control at 125 g/ha: 125 g ai/ha; for pest or weed control at 500 g/ha: 500 g ai/ha. In outline:
as §2

In assay [6] the test system is barnyardgrass (Echinochloa crus-galli). Description: Test A preemergence. The settings on record: Echinochloa crus-galli, pre-emergence, 240 h, preemergence; for pest or weed control at 125 g/ha: 125 g ai/ha; for pest or weed control at 500 g/ha: 500 g ai/ha. The essentials: as §2
In assay [7] the test system is giant foxtail (Setaria faberii). Briefly: Test A preemergence. The following applies: Setaria faberi, pre-emergence, 240 h, preemergence; for pest or weed control at 125 g/ha: 125 g ai/ha; for pest or weed control at 500 g/ha: 500 g ai/ha. The essentials:
as §2

Assay [8] concerns pigweed (Amaranthus retroflexus). Briefly: Test A preemergence. The settings on record: Amaranthus retroflexus, pre-emergence, 240 h, preemergence; for pest or weed control at 125 g/ha: 125 g ai/ha; for pest or weed control at 500 g/ha: 500 g ai/ha.
Assay [9] relates to ryegrass, Italian (Italian ryegrass, Lolium multiflorum). Briefly: Test A postemergence. The following applies: Lolium multiflorum, post-emergence, 240 h, postemergence; for pest or weed control at 125 g/ha: 125 g ai/ha. In outline: as §2
The subject of assay [10] is barnyardgrass (Echinochloa crus-galli). Description: Test A postemergence. The following applies: Echinochloa crus-galli, post-emergence, 240 h, postemergence; for pest or weed control at 125 g/ha: 125 g ai/ha. In outline:
as §2

The subject of assay [11] is giant foxtail (Setaria faberii). Briefly: Test A postemergence. The settings on record: Setaria faberi, post-emergence, 240 h, postemergence; for pest or weed control at 125 g/ha: 125 g ai/ha. In outline:
as §2

The test system of assay [12] is pigweed (Amaranthus retroflexus). Description: Test A postemergence. The following applies: Amaranthus retroflexus, post-emergence, 240 h, postemergence; for pest or weed control at 125 g/ha: 125 g ai/ha. The essentials:
as §2

The mark [13] stands for this setting: scale of 0 to 100 where 0 is no effect and 100 is complete control.
Where [14] appears, read: 0 to 100 scale where 0 is no effect and 100 is complete control.

For `CSc1ccccc1NC(=O)[C@H]1C(=O)N(C)C[C@@H]1c1cc(F)cc(F)c1` [Compound 738], the pest or weed control at 250 g/ha in assay [1] (setting [13]) stood at 40%; in assay [2] (setting [13]), 100%; in assay [3] (setting [13]), 0%; in the assay on rice (Oryra sativa) (setting [13]), 0%. In addition, the pest or weed control at 125 g/ha was determined as 0% in [4] (visual rating after approx. 10 d, 0 to 100 scale where 0 is no effect and 100 is complete control, read-out: Plant response rating, Ryegrass, Italian); 0% with Kochia (Kochia scoparia) (visual rating after approx. 10 d, 0 to 100 scale where 0 is no effect and 100 is complete control, read-out: Plant response rating, Kochia); 0% in [5] (visual rating after approx. 10 d, 0 to 100 scale where 0 is no effect and 100 is complete control, read-out: Plant response rating, Ragweed); 90% in [6] (visual rating after approx. 10 d, 0 to 100 scale where 0 is no effect and 100 is complete control, read-out: Plant response rating, Barnyardgrass); 90% in assay [7] (visual rating after approx. 10 d, 0 to 100 scale where 0 is no effect and 100 is complete control, read-out: Plant response rating, Foxtail, Giant); 0% in assay [8] (visual rating after approx. 10 d, 0 to 100 scale where 0 is no effect and 100 is complete control, read-out: Plant response rating, Pigweed). Besides, the pest or weed control at 125 g/ha in assay [9] (visual injury after approximately 10 d, 0 to 100 scale (0 no effect, 100 complete control), read-out: Plant response rating, Ryegrass, Italian) turned out to be 0%; in assay [10] (visual injury after approximately 10 d, 0 to 100 scale (0 no effect, 100 complete control), read-out: Plant response rating, Barnyardgrass), 80%; in [11] (visual injury after approximately 10 d, 0 to 100 scale (0 no effect, 100 complete control), read-out: Plant response rating, Foxtail, Giant), 70%; in [12] (visual injury after approximately 10 d, 0 to 100 scale (0 no effect, 100 complete control), read-out: Plant response rating, Pigweed), 20%. The pest or weed control at 500 g/ha in [4] (0 to 100 scale, 0 = no effect, 100 = complete control, read-out: Plant response rating, Ryegrass, Italian) was determined as 20%; with Kochia (Kochia scoparia) (0 to 100 scale, 0 = no effect, 100 = complete control, read-out: Plant response rating, Kochia), 70%; in [5] (0 to 100 scale, 0 = no effect, 100 = complete control, read-out: Plant response rating, Ragweed) it was 70%; in assay [6] (0 to 100 scale, 0 = no effect, 100 = complete control, read-out: Plant response rating, Barnyardgrass), 100%; in [7] (0 to 100 scale, 0 = no effect, 100 = complete control, read-out: Plant response rating, Foxtail, Giant) it was 100%; in [8] (0 to 100 scale, 0 = no effect, 100 = complete control, read-out: Plant response rating, Pigweed) it was 50%.
For `CSc1ccccc1NC(=O)[C@H]1C(=O)NC[C@@H]1c1ccc(F)c(C#N)c1` [Compound 1201], the pest or weed control at 250 g/ha in assay [1] (setting [14]) was 0%; in assay [2] (setting [14]), 50%; in assay [3] (setting [14]), 0%; with rice (Oryra sativa) (setting [14]), 0%. Besides, the pest or weed control at 125 g/ha came to 0% in assay [4] (visual injury rating, 0 to 100 scale where 0 is no effect and 100 is complete control, approximately 10 d, read-out: Ryegrass, Italian plant response rating); 30% with Kochia (Kochia scoparia) (visual injury rating, 0 to 100 scale where 0 is no effect and 100 is complete control, approximately 10 d, read-out: Kochia plant response rating); 60% in assay [5] (visual injury rating, 0 to 100 scale where 0 is no effect and 100 is complete control, approximately 10 d, read-out: Ragweed plant response rating); 0% in assay [6] (visual injury rating, 0 to 100 scale where 0 is no effect and 100 is complete control, approximately 10 d, read-out: Barnyardgrass plant response rating); 70% in assay [7] (visual injury rating, 0 to 100 scale where 0 is no effect and 100 is complete control, approximately 10 d, read-out: Foxtail, Giant plant response rating); 20% in assay [8] (visual injury rating, 0 to 100 scale where 0 is no effect and 100 is complete control, approximately 10 d, read-out: Pigweed plant response rating). The pest or weed control at 125 g/ha in [9] (visual injury vs untreated controls after approx. 10 d, 0 = no effect, 100 = complete control, read-out: Ryegrass, Italian plant response rating (0 to 100 scale)) came to 0%; in [10] (visual injury vs untreated controls after approx. 10 d, 0 = no effect, 100 = complete control, read-out: Barnyardgrass plant response rating (0 to 100 scale)), 70%; in assay [11] (visual injury vs untreated controls after approx. 10 d, 0 = no effect, 100 = complete control, read-out: Foxtail, Giant plant response rating (0 to 100 scale)), 70%; in [12] (visual injury vs untreated controls after approx. 10 d, 0 = no effect, 100 = complete control, read-out: Pigweed plant response rating (0 to 100 scale)), 20%. Besides, the pest or weed control at 500 g/ha in [4] (0 to 100 scale where 0 is no effect and 100 is complete control, read-out: Ryegrass, Italian plant response rating) was 0%; with Kochia (Kochia scoparia) (0 to 100 scale where 0 is no effect and 100 is complete control, read-out: Kochia plant response rating), 70%; in [5] (0 to 100 scale where 0 is no effect and 100 is complete control, read-out: Ragweed plant response rating) it was 70%; in assay [6] (0 to 100 scale where 0 is no effect and 100 is complete control, read-out: Barnyardgrass plant response rating) it was 70%; in assay [7] (0 to 100 scale where 0 is no effect and 100 is complete control, read-out: Foxtail, Giant plant response rating) it was 80%; in assay [8] (0 to 100 scale where 0 is no effect and 100 is complete control, read-out: Pigweed plant response rating) it was 70%. The pest or weed control at 500 g/ha in assay [9] (500 g ai/ha, 0 to 100 scale, 0 is no effect, 100 is complete control, read-out: Ryegrass, Italian plant response rating) came out at 0%; in assay [10] (500 g ai/ha, 0 to 100 scale, 0 is no effect, 100 is complete control, read-out: Barnyardgrass plant response rating) it was 100%; in assay [11] (500 g ai/ha, 0 to 100 scale, 0 is no effect, 100 is complete control, read-out: Foxtail, Giant plant response rating) it was 90%; in assay [12] (500 g ai/ha, 0 to 100 scale, 0 is no effect, 100 is complete control, read-out: Pigweed plant response rating), 60%.
